Data set [1] in a line: in vivo. The following applies: Wistar, rat, po, 3 mg/kg.
A short description of data set [2]: in vivo. The following applies: Wistar, rat, po, 3 mg/kg. This is another data set of the same source.
The nature of data set [3]: in vivo. The following applies: Wistar, rat.
Data set [4] is described as follows: in vivo. The following applies: Wistar, rat, iv, 1 mg/kg.
Data set [5] in a line: in vivo. The following applies: Wistar, rat, po, 10 mg/kg.
Data set [6] is described as follows: in vitro. The following applies: rat, liver microsomes. (In general: Liver microsomes are vesicles of endoplasmic reticulum, rich in cytochrome P450 enzymes.)
Data set [7] is described as follows: in vitro. The following applies: human, liver microsomes.

The structures appear in SMILES notation.

In the case of `CC(C)c1nc(C(=O)NCC2C3CN(C4CCOCC4)CC23)n2ccccc12` (stereo unspecified), in “in vivo [1]”, the bioavailability (in general, dose-corrected exposure relative to a reference, in per cent) was 15%. The concentration in “in vivo [2]” peaked (Cmax) at 60 ng/mL. Also, in “in vivo [3]”, the AUC (usually the area under the concentration-time curve, a measure of exposure) was found to be 121 ng·h/mL. Besides, the clearance (as a rule, the volume of plasma or blood freed of the substance per unit of time) in “in vivo [4]” amounted to 62 mL/min/kg. The compound further returned a Kp at 1 h in “in vivo [5]” (brain) of 4. For the same compound, the metabolised at 0.5 h is 0% in “in vitro [6]” and 24.4% in “in vitro [7]”.

As to `OC1(CN2CCC(COc3noc4cccc(O[C@@H]5CCOC5)c34)CC2)CCOCC1` [PF-04995274], the bioavailability in the data set “in vivo [1]” was determined as 5.4%. The Cmax – broadly, the peak of the concentration-time curve – in “in vivo [2]” amounted to 85 ng/mL. In addition, the AUC in “in vivo [3]” was determined as 94 ng·h/mL. For the same compound, the clearance in “in vivo [4]” turned out to be 29 mL/min/kg. The Kp at 1 h in “in vivo [5]” (brain and plasma) came to 0.7. In addition, the metabolised at 0.5 h was determined as 87.3% in “in vitro [6]” and 71.9% in “in vitro [7]”.

As for `COCCCN1CCC(NC(=O)c2cc(Cl)c(N)c3c2OCC3)CC1` [PRUCALOPRIDE], the bioavailability in the data set “in vivo [1]” stood at 84%. Further, the concentration in the data set “in vivo [2]” peaked (Cmax) at 285 ng/mL. In “in vivo [3]”, this compound came in with an AUC of 828 ng·h/mL. The clearance in “in vivo [4]” was 113 mL/min/kg. The metabolised at 0.5 h in “in vitro [6]” is 36.9%; in “in vitro [7]”, 22.1%.

Turning to `COCCCN1CCC(CNC(=O)c2cccn3nc(C(C)C)nc23)CC1`, the results for the metabolised at 0.5 h in “in vitro [6]” and in “in vitro [7]” were 23.4% and 2.7%, respectively.

With `CC(C)n1c(=O)c(C(=O)NCCCN2CCCCC2)c(O)c2ccsc21` [PRX-03140], in the data set “in vivo [1]”, the bioavailability is 2%. The Kp at 1 h in the data set “in vivo [5]” (brain and plasma) is 1.5. Besides, the metabolised at 0.5 h in the data set “in vitro [6]” turned out to be 36.9%; in the data set “in vitro [7]”, 22.1%.

For the origin of these results see ChEMBL document CHEMBL4184335, “Synthesis, Structure-Activity Relationships, and Preclinical Evaluation of Heteroaromatic Amides and 1,3,4-Oxadiazole Derivatives as 5-HT4 Receptor Partial Agonists” (J Med Chem, 2018).
